Source: patent US4933365A, “Phospholipase A2 inhibitors” (American Home Products Corporation, priority 1989, dated 1990)

Tests used:
[1] = system: vascular cutaneous permeability induced by snake venom PLA2 (Naja mocambique mocambique PLA2); assay: reduction of vascular cutaneous permeability induced by snake venom PLA2; type: in vivo, guinea pig (male Hartley); conditions: for % Inhibition: standard drug
carrageenan paw edema = assay: rat carrageenan paw edema; type: in vivo, rat (male Sprague-Dawley); conditions: po, 3 h, read-out: Oral ED50 (95% C.L.)
Procedure: The compounds in the scope of the invention are further tested in the rat carrageenan paw edema to determine their ability to inhibit the acute inflammatory response.
This assay is carried out as follows:
[…] male Sprague-Dawley rats, in groups of 6 animals are injected subcutaneously in the right paw with 0.1 ml of 1% carrageenan at zero time. Mercury plethysmographic readings (ml) of the paw made at zero time and 3 hours later. Test compounds are suspended or dissolved in 0.5% methylcellulose and given perorally 1 hour prior to carrageenan administration.
The increase in paw volume (edema in ml.) produced by the carrageenan is measured. Paw edema is calculated (3 hour volume minus zero time volume), and percent inhibition of edema is determined. Unpaired Student's t-test is used to determine statistical significance.

[2] = system: synthesis of the arachidonic acid cyclooxygenase oxidation product TxB2; assay: inhibition of TxB2 synthesis (cyclooxygenase) by rat PMN; type: cell-based, rat (female Wistar); conditions: A23187 stimulated rat PMN
Procedure: Rat polymorphonuclear leukocytes (PMNs) are obtained from female Wistar rats (150-200 g) which receive an injection of 6% glycogen (10 ml i.p.). Rats are sacrificed 18-24 hours post injection by CO2 asphyxiation and the elicited cells are harvested by peritoneal lavage using physiological saline (0.9% NaCl). The exudate is centrifuged at 400×g for 10 minutes. The supernatant fluid is discarded and the cell pellet is resuspended to concentration of 2.0×10^7 cells/ml in HBSS containing Ca^++ and Mg^++ and 10 μM L-cysteine.
To 1 ml aliquots of cell suspension, test drugs or vehicle are added, then preincubated at 37° C. for 10 minutes. A23187 (1 μM) and [^3 H]-AA (3.0 μCi/ml) are then added and the samples are further incubated for 10 minutes. The reaction is terminated by centrifugation and pelleting cells. Supernatants are then analyzed by HPLC analysis on a 15 cm ×4.6 mm ID Supelcosil LC-18 (Supelco)(3M) column, using a two solvent system at a flow rate of 1.4 ml total flow as follows:
Injections: 150 μl of each supernatant is injected directly onto column and ^3 H arachidonic acid metabolites are monitored using an on-line radioactivity detector (Ramona, IN/US, Fairfield, N.J.).
Co-chromatography with standard [^3 H] leukotriene B4 (LTB4) in medium of stimulated PMN exposed to drug is compared to that found in medium of stimulated cells exposed to no drug, generating percent inhibition.
Results are expressed as percent inhibition at a given compound dose.
In this assay, the procedure of Example 13 is carried out as described. However, in order to determine cyclooxygenase activity, the samples are co-chromatographed with authentic reference [^3 H]--TxB2.
The results are calculated as in Example 13 and present below: […]

[3] = system: oxazolone-induced contact hypersensitivity in the mouse ear; assay: oxazolone-induced contact hypersensitivity in the mouse ear; type: in vivo, mouse (female Swiss Webster); conditions: dosed at 1 mg/ear
Procedure: The assay of this Example measures the ability of the compound in the scope of the invention to inhibit oxazolone-induced contact hypersensitiveity in the mouse ear.
The assay is carried out as follows:
Female, Swiss Webster mice (8 weeks old) are placed into groups of 6 and the abdominal area of each is shaved. The mice are sensitized to oxazolone (4-ethoxymethylene-2-phenyl-oxazol-5-one) by applying 100 μl of a 2% solution in 95% alcohol directly onto the shaved abdomen using an automatic pipette and rubbing the residual oxaxolone into the skin with a round wooden stick. Six days after sensitization each mouse is challenged by applying 20 μl if a 2% oxazolone solution in 95% alcohol to the right ear (10 μl of alcohol alone to the left ear. Compounds for topical applications are prepared in acetone and administered to the right ear 30 min after challenge or 30 min prior to and 5 h after challenge; acetone (vehicle) is applied to the left ear. Compounds for oral administration are suspended in 0.5 ml of 0.5% methyl cellulose and given ten min prior to challenge. Ear thickness of both ears is measured in mm×10^- 2 at 24 and 48 h after challenge using an Oditest caliper. Edema is calculated by subtracting the left ear thickness from the right ear thickness. Drug effects are determined by calculating the percentage change from control for each time period.

CN(C)CCC(c1ccc(Cl)cc1)c1ccccn1 (stereo not drawn) [Chlorpheniramine]
% Inhibition ([1]; 2 mg/kg p.o.): 45.0%

CC(=O)Oc1ccccc1C(=O)O [Aspirin]
ED50 (carrageenan paw edema): 145 mg/kg

COC(=O)C1(C(=O)CCCCc2ccccc2)CO1 (stereo not drawn) [Example 9, 2-(5-Phenyl-1-oxopentyl)-2-oxiranecarboxylic acid methyl ester]
inhibition at 10 µM [2]: 1% | % Inhibition [3]: 22.0%

COc1ccc2c(c1)c(CC(=O)O)c(C)n2C(=O)c1ccc(Cl)cc1 [Indomethacin]
ED50 (carrageenan paw edema): 3.7 mg/kg | % Inhibition ([1]; 50 mg/kg p.o.): 15.0%

COC(=O)C1(C(F)=CCCCOc2ccc(Cl)cc2)CO1 (stereo not drawn) [6 (fluoro-vinyl compound), 2-[5-(4-Chlorophenoxy)-1-fluoro-1-pentenyl]-2-oxiranecarboxylic acid methyl ester]
% Inhibition, iv at 100 mg/kg [1]: 32%

CCOC(=O)C1(CCCCCc2ccc(Cl)cc2)CO1 (stereo not drawn) [Example 10, 2-[5-(4-Chlorophenyl)pentyl]-2-oxiranecarboxylic acid ethyl ester]
inhibition at 10 µM [2]: 4% | % Inhibition, iv at 100 mg/kg [1]: 24.1%

COC(=O)C1(C(=O)CCCCOc2ccc(Cl)cc2)CO1 (stereo not drawn) [Example 6A, 2-[5-(4-Chlorophenoxy)-1-oxopentyl]-2-oxiranecarboxylic acid methyl ester]
inhibition at 10 µM [2]: 30%

NC1=NN(c2cccc(C(F)(F)F)c2)CC1 [BW 755c]
% Inhibition ([1]; 200 mg/kg p.o.): 65.3%

C[C@@H]1C[C@H]2[C@@H]3CCC4=CC(=O)C=C[C@]4(C)[C@@]3(F)[C@@H](O)C[C@]2(C)[C@@]1(O)C(=O)CO [Dexamethasone]
% Inhibition ([1]; 10 mg/kg p.o.): 49.0%
